# Experimental data reported in patent publication US20230079100A1, “PROCESS FOR PREPARING SOLID FORMULATIONS COMPRISING A HYDROPHOBIC COMPOUND DISPERSIBLE IN A COLD LIQUID AND RELATIVE SOLID FORMULATIONS” (NUTRILINEA S.R.L., priority 2020, published 2023).
# Experiments:
# [1] = Visual evaluation of the degree of wettability of solid formulations poured into water; format: physicochemical; conditions: for Visual degree of wettability of the solid formulation: process of the invention, fluid bed, 1.5 g in 100 ml water at room temperature
# [2] = Static contact angle of ultrapure water on sample pelleted or deposited as film (Krüss Easy Drop); format: physicochemical; conditions: 8 μL milliQ water drop, mean with standard deviation, 0 = complete wettability; for Contact angle on pellet: pelleted sample; for Contact angle on film (°): sample deposited as film
# Method: 1.4 Contact angle measurements on hydrophobic substrates treated according to the process of the present invention (see section 1 of the experimental part).
# The experimental measurements reported hereinafter relate to the study of the wettability characteristics of powdered samples before and after the process according to the present invention. The determination of the static contact angle of ultrapure water (also referred to as grade 1) was carried out on the surface of the sample pelleted or deposited in the form of film, according to methods known in the state of the art and as reported in [1] Nowak et al. Powder Technology 233 (2013) 52-64, e in [2] Bachmann and McHale, European Journal of Soil Science, 60 (2009) 420-430. The determinations were carried out using a Krüss Easy Drop instrument using drops of 8 μL of milliQ water. The behaviour of the drop in the first seconds from the deposition was analysed by recording 30-second video at 25 fps (frames per second): the contact angle considered is the equilibrium value or the final one at the end of the recording. Each sample was analysed both deposited in the form of film and pelleted and at least 3 independent contact angle determinations were carried out for each sample.
# 5 different types of powders were analysed; each of them was analysed both in the unmodified form thereof (as such) and after the process according to the present invention. In the case of the PEA (Palmitoylethanolamide) powder, a second batch of sample was analysed, for which only measurements on film were carried out. The results of the determinations are reported in Table IV: the mean contact angle value with standard deviation relative to the measurements on pellet and on film are reported. In case of complete wettability of the sample, an angle of 0° is reported. Overall, a greater correspondence of the wettability data measured on film with the dispersibility data observed experimentally (visual observation) is observed. This observation is in good agreement with the literature; the less representativeness of the measurements on pellets can be linked in some cases to absorption phenomena linked to the porosity of the pellet or to alterations of the surface free energy of the powder during pelletisation due to the applied pressure.
# [3] = comparison process (A) dry mixing in a cube (1 kg), charging agent maltodextrin, 50%/50%
# [4] = comparison process (A) dry mixing in a cube (1 kg), charging agent maltodextrin, 70%/30%
# [5] = comparison process (A) dry mixing in a cube (1 kg), charging agent mannitol, 50%/50%
# [6] = comparison process (A) dry mixing in a cube (1 kg), charging agent mannitol, 70%/30%
# [7] = comparison process (A) dry mixing in a cube (1 kg), charging agent sugar, active/charging agent 50%/50%
# [8] = comparison process (A) dry mixing in a cube (1 kg), charging agent sugar, active/charging agent 70%/30%
# [9] = comparison process (B) wet granulations (1.5 kg), charging agent maltodextrin, 50%/50%
# [10] = comparison process (B) wet granulations (1.5 kg), charging agent maltodextrin, 70%/30%
# [11] = comparison process (B) wet granulations (1.5 kg), charging agent mannitol, 50%/50%
# [12] = comparison process (B) wet granulations (1.5 kg), charging agent mannitol, 70%/30%
# [13] = comparison process (B) wet granulations (1.5 kg), charging agent sugar, 50%/50%
# [14] = comparison process (B) wet granulations (1.5 kg), charging agent sugar, 70%/30%
# [15] = comparison process (C) wet granulation in a fluid bed granulator (1.5 kg), atomised water about 300-400 g, charging agent maltodextrin, 50%/50%
# [16] = comparison process (C) wet granulation in a fluid bed granulator (1.5 kg), atomised water about 300-400 g, charging agent maltodextrin, 70%/30%
# [17] = comparison process (C) wet granulation in a fluid bed granulator (1.5 kg), atomised water about 300-400 g, charging agent sugar, 50%/50%
# [18] = comparison process (C) wet granulation in a fluid bed granulator (1.5 kg), atomised water about 300-400 g, charging agent sugar, 70%/30%
# [19] = comparison process (C) wet granulation in a fluid bed granulator, atomised water about 300-400 g, charging agent mannitol, 50%/50%
# [20] = comparison process (C) wet granulation in a fluid bed granulator, atomised water about 300-400 g, charging agent mannitol, 70%/30%
# [21] = comparison process (D.a) granulation in a powder kneader (1 kg), active 90% w/w + liquid polysorbate 80 pure 10% w/w
# [22] = comparison process (D.b) mixing in a cube (1 kg), active 90% w/w + powder sucrester 10% w/w
# [23] = comparison process (E) wet granulation in a fluid bed granulator, active 90% + aqueous solution of polysorbate 80 at 10% w/w, 10%
# [24] = solid substrate 90% w/w (900 g) + liquid polysorbate 80 pure at 100% 10% w/w (100 g)
# [25] = solid substrate 93% w/w (930 g) + liquid polysorbate 80 pure at 100% 7% w/w (70 g)
# [26] = solid substrate 95% w/w (950 g) + liquid polysorbate 80 pure at 100% 5% w/w (50 g)
Compound,"Visual degree of wettability of the active component [1, 3]","Visual degree of wettability of the active component [1, 4]","Visual degree of wettability of the active component [1, 5]","Visual degree of wettability of the active component [1, 6]","Visual degree of wettability of the active component [1, 7]","Visual degree of wettability of the active component [1, 8]","Visual degree of wettability of the active component [1, 9]","Visual degree of wettability of the active component [1, 10]","Visual degree of wettability of the active component [1, 11]","Visual degree of wettability of the active component [1, 12]","Visual degree of wettability of the active component [1, 13]","Visual degree of wettability of the active component [1, 14]","Visual degree of wettability of the active component [1, 15]","Visual degree of wettability of the active component [1, 16]","Visual degree of wettability of the active component [1, 17]","Visual degree of wettability of the active component [1, 18]","Visual degree of wettability of the active component [1, 19]","Visual degree of wettability of the active component [1, 20]","Visual degree of wettability of the active component [1, 21]","Visual degree of wettability of the active component [1, 22]",also measured
"CCCCCCCCCCCCCCCC(=O)NCCO [PEA, Palmitoylethanolamide]",Nil,Nil,Nil,Nil,Nil,Nil,Nil/low,Nil/low,Nil/low,Nil/low,Nil/low,Nil/low,Low/Sufficient,Low,Low/Sufficient,Low,Low/Sufficient,Low,Low/Sufficient,Nil,"Visual degree of wettability of the active component [1, 23]: Low/Sufficient; Visual degree of wettability of the solid formulation [1, 24]: Excellent; Visual degree of wettability of the solid formulation [1, 25]: Fair; Visual degree of wettability of the solid formulation [1, 26]: Fair; Contact angle on pellet [2]: 72 ± 4 °; Contact angle on film (°) ([2]; listed as PEA as such): 117 ± 7 °; Contact angle on film (°) ([2]; listed as PEA as such second batch): 114 ± 5 °"
alpha-lactalbumin,Nil,Nil,Nil,Nil,Nil,Nil,Nil/low,Nil/low,Nil/low,Nil/low,Nil/low,Nil/low,Low/Sufficient,Low,Low/Sufficient,Low,Low/Sufficient,Low,Low/Sufficient,Nil,"Visual degree of wettability of the active component [1, 23]: Low/Sufficient; Visual degree of wettability of the solid formulation [1, 24]: Excellent; Visual degree of wettability of the solid formulation [1, 25]: Fair; Visual degree of wettability of the solid formulation [1, 26]: Fair; Contact angle on pellet [2]: 61 ± 6 °; Contact angle on film (°) [2]: 69 ± 3 °"
